{"source": "patent US20220009920A1", "about": "(GB005, Inc., priority 2020, published 2022)", "assay_in_all_cases": "Large panel kinase profiling", "type_in_all_cases": "biochemical", "details_in_all_cases": "1 μM test article, 1 mM ATP", "key": {"[1]": {"molecular_target": "T1, PRKG1 (Homo sapiens, UniProt Q13976)", "T1 sequence (Q13976 1-671)": "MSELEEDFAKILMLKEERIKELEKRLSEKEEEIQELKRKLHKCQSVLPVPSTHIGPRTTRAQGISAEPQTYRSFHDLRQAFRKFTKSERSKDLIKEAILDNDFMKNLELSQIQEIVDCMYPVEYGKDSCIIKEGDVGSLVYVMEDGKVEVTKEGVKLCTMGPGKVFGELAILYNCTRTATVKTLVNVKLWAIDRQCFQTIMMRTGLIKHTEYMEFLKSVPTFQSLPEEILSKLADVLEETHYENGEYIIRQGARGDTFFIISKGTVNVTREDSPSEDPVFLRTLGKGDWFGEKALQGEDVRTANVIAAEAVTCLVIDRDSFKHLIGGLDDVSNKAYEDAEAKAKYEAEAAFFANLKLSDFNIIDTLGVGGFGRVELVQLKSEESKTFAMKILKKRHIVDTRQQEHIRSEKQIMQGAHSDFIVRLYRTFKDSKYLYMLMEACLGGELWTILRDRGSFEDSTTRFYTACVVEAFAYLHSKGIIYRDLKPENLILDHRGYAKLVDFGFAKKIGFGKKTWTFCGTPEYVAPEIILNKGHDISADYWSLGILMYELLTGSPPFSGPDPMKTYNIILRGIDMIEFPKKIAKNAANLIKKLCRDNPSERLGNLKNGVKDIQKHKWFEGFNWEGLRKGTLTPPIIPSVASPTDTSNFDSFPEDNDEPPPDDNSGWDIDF", "method_in_brief": "(§1)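 Activity is measured in real time from the CSox sensor's fluorescence at 485 nm after 360 nm excitation, sampled every minute. Assays run at 30° C. with 1 mM ATP and a single 1 μM compound dose.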"}, "[2]": {"molecular_target": "T2, BRSK1 (Homo sapiens, UniProt Q8TDC3)", "T2 sequence (Q8TDC3 1-778)": "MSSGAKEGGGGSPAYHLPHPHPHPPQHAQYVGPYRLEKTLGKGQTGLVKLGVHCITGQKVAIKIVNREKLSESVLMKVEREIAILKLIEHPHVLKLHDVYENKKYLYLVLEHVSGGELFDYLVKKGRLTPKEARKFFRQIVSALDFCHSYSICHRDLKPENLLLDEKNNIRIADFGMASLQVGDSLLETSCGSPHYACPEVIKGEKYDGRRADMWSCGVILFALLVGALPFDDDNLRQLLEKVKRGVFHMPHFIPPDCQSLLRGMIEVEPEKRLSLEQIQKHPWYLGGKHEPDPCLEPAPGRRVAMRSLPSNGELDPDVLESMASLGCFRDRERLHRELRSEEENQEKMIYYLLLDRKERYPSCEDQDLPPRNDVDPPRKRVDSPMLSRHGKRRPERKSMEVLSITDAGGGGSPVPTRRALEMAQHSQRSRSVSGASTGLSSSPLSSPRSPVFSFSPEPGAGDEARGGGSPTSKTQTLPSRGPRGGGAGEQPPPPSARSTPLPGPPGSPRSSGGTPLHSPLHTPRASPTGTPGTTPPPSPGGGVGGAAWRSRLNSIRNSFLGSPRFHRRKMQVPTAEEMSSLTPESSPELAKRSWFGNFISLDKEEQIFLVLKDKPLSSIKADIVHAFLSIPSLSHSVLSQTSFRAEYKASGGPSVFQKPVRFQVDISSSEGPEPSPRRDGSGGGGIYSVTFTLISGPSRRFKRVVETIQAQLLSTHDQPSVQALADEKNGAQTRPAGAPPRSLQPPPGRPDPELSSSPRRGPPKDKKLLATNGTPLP", "method_in_brief": "as §1"}, "[3]": {"molecular_target": "ERBB2/HER2 (Homo sapiens, UniProt P04626)", "sequence (P04626 23-1255)": "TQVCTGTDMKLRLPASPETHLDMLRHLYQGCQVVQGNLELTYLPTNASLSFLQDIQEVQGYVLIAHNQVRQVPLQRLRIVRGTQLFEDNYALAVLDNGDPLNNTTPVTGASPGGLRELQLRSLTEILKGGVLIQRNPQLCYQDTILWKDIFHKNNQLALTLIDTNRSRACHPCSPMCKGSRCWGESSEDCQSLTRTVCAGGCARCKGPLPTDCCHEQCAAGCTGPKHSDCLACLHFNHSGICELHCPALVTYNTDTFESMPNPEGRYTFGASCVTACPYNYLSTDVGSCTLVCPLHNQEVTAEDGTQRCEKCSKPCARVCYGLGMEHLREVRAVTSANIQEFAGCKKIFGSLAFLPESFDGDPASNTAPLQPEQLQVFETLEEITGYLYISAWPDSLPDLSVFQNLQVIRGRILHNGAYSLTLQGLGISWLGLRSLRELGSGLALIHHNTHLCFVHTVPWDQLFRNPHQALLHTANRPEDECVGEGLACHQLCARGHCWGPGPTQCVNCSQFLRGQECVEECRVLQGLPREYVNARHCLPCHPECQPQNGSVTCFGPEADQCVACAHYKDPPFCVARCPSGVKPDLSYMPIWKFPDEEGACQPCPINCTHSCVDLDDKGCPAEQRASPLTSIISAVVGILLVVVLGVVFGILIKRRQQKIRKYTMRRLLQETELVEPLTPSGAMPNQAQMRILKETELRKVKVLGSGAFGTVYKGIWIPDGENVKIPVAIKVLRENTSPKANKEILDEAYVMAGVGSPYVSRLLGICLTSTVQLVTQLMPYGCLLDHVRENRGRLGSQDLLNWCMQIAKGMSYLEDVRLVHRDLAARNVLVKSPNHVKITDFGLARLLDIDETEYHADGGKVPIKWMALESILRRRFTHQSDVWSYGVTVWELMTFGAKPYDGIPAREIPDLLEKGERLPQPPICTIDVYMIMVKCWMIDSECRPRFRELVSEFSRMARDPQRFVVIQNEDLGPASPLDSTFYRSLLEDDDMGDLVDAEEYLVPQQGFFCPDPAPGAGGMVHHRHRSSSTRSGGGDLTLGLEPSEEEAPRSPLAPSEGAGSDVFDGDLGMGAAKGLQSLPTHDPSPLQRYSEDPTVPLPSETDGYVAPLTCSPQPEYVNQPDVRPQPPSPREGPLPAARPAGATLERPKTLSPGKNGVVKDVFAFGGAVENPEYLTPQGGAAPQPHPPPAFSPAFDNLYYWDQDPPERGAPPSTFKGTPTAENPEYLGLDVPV", "method_in_brief": "as §1"}, "[4]": {"molecular_target": "T3, PRKD1 (Homo sapiens, UniProt Q15139)", "T3 sequence (Q15139 1-912)": "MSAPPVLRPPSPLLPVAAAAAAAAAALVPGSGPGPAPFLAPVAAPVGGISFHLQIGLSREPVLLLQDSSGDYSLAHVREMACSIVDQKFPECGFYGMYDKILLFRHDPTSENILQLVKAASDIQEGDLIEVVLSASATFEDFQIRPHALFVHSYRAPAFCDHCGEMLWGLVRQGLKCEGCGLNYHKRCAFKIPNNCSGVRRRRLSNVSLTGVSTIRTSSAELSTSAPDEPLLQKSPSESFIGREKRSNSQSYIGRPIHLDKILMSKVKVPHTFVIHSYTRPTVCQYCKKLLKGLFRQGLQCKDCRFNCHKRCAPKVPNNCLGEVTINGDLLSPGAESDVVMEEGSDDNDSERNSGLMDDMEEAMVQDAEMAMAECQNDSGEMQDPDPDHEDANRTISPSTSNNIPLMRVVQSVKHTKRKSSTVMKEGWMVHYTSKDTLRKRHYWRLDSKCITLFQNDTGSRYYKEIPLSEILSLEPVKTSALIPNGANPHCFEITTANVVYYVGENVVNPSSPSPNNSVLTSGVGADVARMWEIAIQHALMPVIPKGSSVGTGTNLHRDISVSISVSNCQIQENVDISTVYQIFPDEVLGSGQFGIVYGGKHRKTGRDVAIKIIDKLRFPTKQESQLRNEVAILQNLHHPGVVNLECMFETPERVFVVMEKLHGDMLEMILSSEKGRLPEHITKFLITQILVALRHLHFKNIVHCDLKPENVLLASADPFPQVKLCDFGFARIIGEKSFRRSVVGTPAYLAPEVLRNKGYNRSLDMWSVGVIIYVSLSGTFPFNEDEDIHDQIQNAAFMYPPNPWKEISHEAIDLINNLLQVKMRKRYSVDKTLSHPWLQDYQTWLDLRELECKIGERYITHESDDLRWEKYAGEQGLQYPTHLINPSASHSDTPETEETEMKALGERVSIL", "method_in_brief": "as §1"}, "[5]": {"molecular_target": "T4, CDK16/T (Homo sapiens, UniProt Q00536)", "T4 construct": "AssayQuant Technologies, Inc. (ran the panel)", "T4 sequence (Q00536 whole entry, species assumed)": "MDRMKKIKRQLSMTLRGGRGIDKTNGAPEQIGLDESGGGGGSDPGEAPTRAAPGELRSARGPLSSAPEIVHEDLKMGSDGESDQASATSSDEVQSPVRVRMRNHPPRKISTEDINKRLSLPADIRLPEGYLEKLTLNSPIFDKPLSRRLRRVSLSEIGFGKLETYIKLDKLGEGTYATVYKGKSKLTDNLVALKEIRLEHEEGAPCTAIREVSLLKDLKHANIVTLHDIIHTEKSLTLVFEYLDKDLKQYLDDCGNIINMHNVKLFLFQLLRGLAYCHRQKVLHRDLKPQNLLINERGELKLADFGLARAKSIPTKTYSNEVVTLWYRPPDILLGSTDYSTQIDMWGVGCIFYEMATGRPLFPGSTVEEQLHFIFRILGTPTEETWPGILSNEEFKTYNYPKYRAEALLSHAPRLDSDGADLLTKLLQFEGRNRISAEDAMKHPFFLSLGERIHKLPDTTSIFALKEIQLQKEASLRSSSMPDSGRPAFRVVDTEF", "T4 sequence (Q8ND76 whole entry partner, species assumed)": "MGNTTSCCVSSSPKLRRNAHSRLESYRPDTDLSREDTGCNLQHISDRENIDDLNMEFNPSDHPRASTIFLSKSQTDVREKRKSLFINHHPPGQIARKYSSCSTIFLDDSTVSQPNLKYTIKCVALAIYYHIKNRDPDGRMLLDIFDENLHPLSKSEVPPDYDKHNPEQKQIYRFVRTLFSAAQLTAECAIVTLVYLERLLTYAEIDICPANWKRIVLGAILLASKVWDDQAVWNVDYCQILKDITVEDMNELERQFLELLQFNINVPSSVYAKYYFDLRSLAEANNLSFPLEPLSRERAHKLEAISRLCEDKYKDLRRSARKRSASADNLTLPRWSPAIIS", "method_in_brief": "as §1"}}, "data": [{"molecule": "C=CC(=O)N1CCCC(c2c(F)cc(C(N)=O)c3[nH]c4c(c23)CCCCC4)C1", "note": "(single isomer, unassigned) [Compound 5-6]", "values": [{"measurement": "inhibition at 1 µM", "setting": "[1]", "result": -2.8, "unit": "%"}, {"measurement": "inhibition at 1 µM", "setting": "[2]", "result": -30.9, "unit": "%"}, {"measurement": "inhibition at 1 µM", "setting": "[3]", "result": -2.2, "unit": "%"}, {"measurement": "inhibition at 1 µM", "setting": "[4]", "result": -6.6, "unit": "%"}, {"measurement": "inhibition at 1 µM", "setting": "[5]", "result": 19.7, "unit": "%"}]}, {"molecule": "C=CC(=O)N1CCC[C@@H](c2c(F)cc(C(N)=O)c3[nH]c4c(c23)CCC4)C1", "note": "[Compound 10-2, (S)-8-(1-acryloylpiperidin-3-yl)-7-fluoro-1,2,3,4-tetrahydrocyclo-penta[b]indole-5-carboxamide]", "values": [{"measurement": "inhibition at 1 µM", "setting": "[1]", "result": -5.8, "unit": "%"}, {"measurement": "inhibition at 1 µM", "setting": "[2]", "result": 10.1, "unit": "%"}, {"measurement": "inhibition at 1 µM", "setting": "[3]", "result": 14.5, "unit": "%"}, {"measurement": "inhibition at 1 µM", "setting": "[4]", "result": -24.2, "unit": "%"}, {"measurement": "inhibition at 1 µM", "setting": "[5]", "result": -8.1, "unit": "%"}]}, {"molecule": "C=CC(=O)N1CCC[C@@H](c2c(F)cc(C(N)=O)c3[nH]c4c(c23)CC2(CC4)CC2)C1", "note": "[Compound 6-2, (S)-5-(1-acryloylpiperidin-3-yl)-6-fluoro-1,2,4,9-tetrahydrospiro[carbazole-3,1′-cyclopropane]-8-carboxamide]", "values": [{"measurement": "inhibition at 1 µM", "setting": "[1]", "result": 0, "unit": "%"}, {"measurement": "inhibition at 1 µM", "setting": "[2]", "result": -13, "unit": "%"}, {"measurement": "inhibition at 1 µM", "setting": "[3]", "result": 11.9, "unit": "%"}, {"measurement": "inhibition at 1 µM", "setting": "[4]", "result": -16, "unit": "%"}, {"measurement": "inhibition at 1 µM", "setting": "[5]", "result": -3.1, "unit": "%"}]}]}
